How the values were obtained:
[1] = molecular target: T1, γ-secretase (Mus musculus, UniProt P49769); test: cell-based γ-secretase assay in N2A cells stably overexpressing APP; settings: 24 hours with GSI, Aβ 40-site cleavage, ECL detection
Protocol: The cell-based assay utilized N2A mouse neuroblastoma cells that stably overexpress the amyloid precursor protein. These were incubated with γ-secretase inhibitors in a final concentration of 1% DMSO for 24 hours. Following incubation, the supernatant was removed from the cells and assayed for Aβ 40-site cleaved APP product using ruthenylated G2-10* antibody as well as biotinylated 4G8 antibody.

[2] = molecular target: T2, γ-secretase (Homo sapiens, UniProt P49768); test: exo-cell γ-secretase assay in HeLa cells; assay type: cell-based; settings: HeLa cells incubated simultaneously with GSI, 1 μM Sb4 and 0.25% CHAPSO, 2.5 hours; ECL detection
Protocol: (§1) Cells were seeded at their indicated concentration in 96-well plates and allowed to attach overnight (Fig. 1c). The next day, media was removed and cells were washed once with PBS. Fresh media was then added containing 0.25% CHAPSO detergent, Sb4 substrate to a final concentration of 1 μM, and 1% DMSO or γ-secretase inhibitor. This was incubated for 2.5 hours at 37°C. Media was removed and cell debris was pelleted from this media for 5 min. at 3,500 rpm's. Supernatant was then added to ruthenylated G2-10* antibody that recognizes cleaved product, but not uncleaved substrate. This was incubated for an additional 2 hours at room temperature. Finally, magnetic streptavidin beads were added to a final concentration of 80 μg/ml and incubated for 30 min. at room temperature. Assay buffer was added to the samples and γ-secretase-mediated cleavage of substrate was monitored using electrochemiluminescence (ECL). Protocol for HTRF detection can be found below.
Homogeneous time-resolved fluorescence (HTRF) was also incorporated for the exo-cell assay detection of cleaved substrate. […] Exo-cell supernatent and HTRF detection mix were incubated together for 5 hours in a 384-well plate and then activity was measured by stimulating at 337 nm and reading at 665 nm.

[3] = molecular target: T2, γ-secretase; test: extended exo-cell γ-secretase assay in HeLa cells; assay type: cell-based
Protocol: as §1
Conversely, an extended exo-cell assay was performed whereby cells were seeded and allowed to attach overnight as previously described. However, the next day media was removed and replaced with fresh media containing 1% DMSO or γ-secretase inhibitor. These were incubated for 24 hours at 37°C. Following this incubation, the cells were washed once with PBS and fresh media containing detergent and substrate were added. […]

[4] = test system: A20 mouse lymphoma cells; test: lymphoma proliferation assay ([3H]thymidine incorporation); assay type: cell-based; settings: for inhibition of cellular proliferation (in words): 48 hours of treatment
Protocol: A20 mouse lymphoma cells were seeded in a 96-well plate at a concentration of 5 × 10^5 cells/ml in 100 μl RPMI media containing 2% fetal bovine serum. An additional 100 μl of media containing DMSO or γ-secretase inhibitor was added and incubated for 48 hours at 37°C. After this incubation, the cells were incubated for 5 hours with 2 μCi/ml [^3H]thymidine at 37°C. Proliferative response was then evaluated by harvesting the tritiated DNA from cells using a Skatron cell harvester and proliferation assessed as a function of [^3H]thymidine incorporation measured on a β-counter.

[5] = molecular target: T2, γ-secretase; test: in vitro γ-secretase assay with Sb4 substrate and solubilized γ-secretase; assay type: biochemical; settings: Sb4 substrate, 0.25% CHAPSO, solubilized γ-secretase, 2.5 hours at 37°C, ECL detection
Protocol: The in vitro and cell-based γ-secretase assays were performed similarly as previously described. Briefly, the recombinant Sb4 substrate was incubated for 2.5 hours at 37°C in pH 7.0 PIPES buffer in the presence of 0.25% CHAPSO detergent and solubilized γ-secretase at a final concentration of 40 ng/ul. The detection of cleaved substrate was determined using ruthenylated G2-10* antibody. Due to biotinylation of the Sb4 substrate, this eliminated the additional use of 6E10 biotinylated antibody from the original protocol.

[6] = molecular target: T1, γ-secretase; test: real-time exo-cell γ-secretase assay in A20 mouse lymphoma cells; assay type: cell-based; settings: 300 nM, 48 hours treatment
Protocol: Figure 4 Examination of real-time γ-secretase activity in A20 lymphoma and in primary B-CLL patient samples. (a) Correlation between real-time inhibition of γ-secretase activity and GSI-mediated inhibition of A20 mouse lymphoma proliferation. Two 96-well plates were seeded with 50,000 A20 mouse lymphoma cells per well in 100 μl RPMI media. To each of these plates an additional 100 μl of media was added containing DMSO or GSI-34 to indicated final concentration. These plates were incubated for 48 hours at 37°C. Following this incubation, one plate was used in a real-time exo-cell assay to quantitate the real-time inhibition of γ-secretase in A20 cells. Briefly, A20 cells were pelleted and media removed. Fresh media containing 1 μM Sb4 substrate and 0.25% CHAPSO detergent were added and the exo-cell assay was performed. For each assay point n = 4, and s.d. is plotted. Additionally, to the other 96-well plate 2 μCi/ml [^3H]thymidine was incubated with the cells for 5 hours. Following 5-hour incubation at 37°C, the amount of tritiated DNA was quantified on a β-counter. For each proliferation assay point n = 10, and s.d. is plotted. (b) Real-time γ-secretase activity in primary B-CLL patient samples. […] Assay buffer was added to the samples and γ-secretase-mediated cleavage of substrate was monitored using electrochemiluminescence (ECL). […]

| IC50 [5] [nM] | inhibition of γ-secretase activity (in words) ([3]; HeLa cells treated 24 hours with varying concentrations) | inhibition at 0.3 µM [6] [%] | Compound | IC50 [1] [nM] | IC50 [2] [nM] | IC50 ([3]; HeLa cells incubated with GSI for 24 hours, washed, then Sb4 and CHAPSO, ECL detection) [nM] | inhibition of cellular proliferation (in words) [4] | reduction of cellular proliferation ([4]; 300 nM, 48 hours treatment) [%] |
| --- | --- | --- | --- | --- | --- | --- | --- | --- |
|  |  |  | CC(NC(=O)Cc1cc(F)cc(F)c1)C(=O)NC1N=C(c2ccccc2)c2ccccc2N(C)C1=O (stereo not shown) [Compound E] | 4.6 | 3.8 | 2.8 | able to inhibit cellular proliferation |  |
| 1 | Dose-dependent inhibition | ~80 | O=C(COc1ccc(F)cc1)Nc1ccc2c(c1)CC1CCC(C2)C1NS(=O)(=O)c1ccc(Cl)s1 (stereo not shown) [GSI-34] |  |  |  | able to inhibit cellular proliferation | 30 |
|  |  |  | CC(C)C[C@H](NC(=O)[C@H](Cc1ccccc1)C[C@@H](O)[C@H](Cc1ccccc1)NC(=O)OC(C)(C)C)C(=O)N[C@@H](Cc1ccccc1)C(N)=O [L-685,458] |  |  |  | able to inhibit cellular proliferation |  |

— paper PMC3224971, “An exo-cell assay for examining real-time γ-secretase activity and inhibition” (Molecular Neurodegeneration, 2009)
